From publication PMC5577450, “An ancient FMRFamide-related peptide–receptor pair induces defence behaviour in a brachiopod larva” (Open Biology, 2017)

What was measured:
[1] = tested on: Terebratalia transversa larvae; test: Behavioural assay: full contraction / defence stance of larvae exposed to synthetic peptides; assay type: in vivo; conditions: for necessary concentration to induce defense stance (full contraction): > 50 stands for 'no contraction at 50 µM'; for contraction reaction of larvae (in words): at 50 µmol l^−1 (maximum concentration cutoff)
Procedure: The reaction of larvae to synthetic peptides (GenScript) that were predicted from the prepropeptide sequence were tested and compared with the reactions to peptides with non-native modifications. Freely swimming larvae were exposed to different concentrations of peptides in 4-well and 6-well plates (1 ml and 5 ml total volume per well, respectively), and their reactions were observed under a stereomicroscope. To determine the efficiency of the native and modified peptides, the larvae were tested for the necessary minimum concentration at which they fully contracted and spread their chaetae, using 30–100 larvae in each test. To get an estimation of the peptide concentration that was necessary to induce a complete contraction, the larvae were initially exposed to 50 nmol l^−1 of the respective peptide and the concentration was then increased stepwise until the larvae fully contracted or a concentration of 50 µmol l^−1 was reached as an upper cutoff. […] To test the influence of the peptides on the vertical distribution of larvae in a water column, freely swimming larvae (50–100 per treatment) were exposed to peptides in transparent 4.5 ml cuvettes. About 60 s after addition of the peptides, the larvae were recorded with a digital camera (DMK 31AU03 camera, The Imaging Source) in a darkened box with artificial top-illumination. All experiments were repeated at least once with a different batch of larvae from another fertilization and the outcome was averaged. Control animals were exposed to DMSO only.

[2] = tested on: late chaetous larvae of Novocrania anomala; test: Behavioural test of the orthologue peptide for a defence reaction; assay type: in vivo; conditions: no defence reaction even above this concentration
[3] = tested on: T. transversa FLRFamide receptor; test: Receptor deorphanization: luminescence response of transfected CHO-K1 cells; assay type: cell-based, Terebratalia transversa; conditions: fixed peptide concentration 1 µmol l^−1 (figure 4a)
Chain of T. transversa FLRFamide receptor (as listed by the source): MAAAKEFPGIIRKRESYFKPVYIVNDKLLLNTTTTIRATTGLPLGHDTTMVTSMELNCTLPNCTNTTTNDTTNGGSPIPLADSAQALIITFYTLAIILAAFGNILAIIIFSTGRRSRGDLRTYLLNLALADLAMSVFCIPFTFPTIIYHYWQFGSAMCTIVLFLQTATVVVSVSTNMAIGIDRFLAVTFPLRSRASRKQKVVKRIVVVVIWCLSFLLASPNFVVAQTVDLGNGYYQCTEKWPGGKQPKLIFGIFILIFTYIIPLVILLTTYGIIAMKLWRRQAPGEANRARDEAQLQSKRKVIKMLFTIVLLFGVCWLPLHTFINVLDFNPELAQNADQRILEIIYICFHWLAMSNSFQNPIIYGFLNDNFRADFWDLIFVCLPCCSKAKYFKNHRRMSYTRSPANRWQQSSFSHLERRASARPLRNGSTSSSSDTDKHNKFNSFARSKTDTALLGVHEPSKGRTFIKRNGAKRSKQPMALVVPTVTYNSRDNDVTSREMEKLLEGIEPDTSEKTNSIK
Description: For the receptor deorphanization, the procedure was used as described by Bauknecht & Jékely: full-length open reading frames of the receptor candidate sequences were amplified by PCR from cDNA of mixed larval stages. The forward primers included a 5′ attachment consisting of a spacer, an EcoR1 or BamH1 restriction site and a Kozak sequence and the reverse primers included a 5′ attachment consisting of a spacer and a Not1 restriction site (see the electronic supplementary material for primer sequences). […] The luminescence response of the transfected cells was measured in a plate reader (BioTek Synergy Mx or Synergy H4, BioTek, Winooski, USA) over 45 s after addition of the neuropeptides. […] Dose–response curves were calculated using PRISM 6 (GraphPad, La Jolla, USA) and normalized against the upper plateau values (100% activation).
Figure 4. Luminescence response of T. transversa FLRFamide receptor expressing CHO-K1 cells to different peptides. (a) Relative luminescence of T. transversa FLRFamide receptor expressing cells after exposure to different peptides with a fixed concentration of 1 µmol l^−1. […] Luminescence values are given relative to maximum luminescence (max = 1). RLU relative luminescence.

[4] = tested on: late chaetous larvae of P. dumerilii; test: Behavioural test of the orthologue peptide for a defence reaction; assay type: in vivo, Platynereis dumerilii; conditions: no defence reaction even above this concentration

| Substance | necessary concentration to induce defense stance (full contraction) ([1]; batch 1) [µM] | necessary concentration to induce defense stance (full contraction) ([1]; batch 2) [µM] | contraction reaction of larvae (in words) [1] | other results |
| --- | --- | --- | --- | --- |
| AFLRWamide [modified AFLRFamide with amidated C-terminal tryptophan] | 20 | 20 |  | concentration triggering full contraction / defence stance (minimum necessary concentration) ([1]; cutoff 50 µmol l^−1): 20 µmol/L; reduction of effectiveness on changing the amidated C-terminal phenylalanine to an amidated tryptophan ([1]; relative to the corresponding Famide peptide): about 10 fold |
| YMRFamide [orthologue of AFLRFamide/DFLRFamide] | 10 | 15 |  | concentration inducing a defence reaction [2]: above 50 µmol l^−1 |
| AFLRLamide [modified AFLRFamide with C-terminal leucine] |  |  | no reaction at all |  |
| DFLRLamide [modified DFLRFamide with C-terminal leucine] |  |  | very weak contraction | luminescence response of FLRFamide receptor expressing CHO-K1 cells (in words) [3]: barely higher than the negative control |
| FMRFamide [orthologue of AFLRFamide/DFLRFamide in P. dumerilii] |  |  |  | concentration inducing a defence reaction [4]: above 50 µmol l^−1 |
